According to patent US20240158418A1 (C4 Therapeutics, Inc., priority 2021, published 2024):
Read-outs that look alike come from different tables or passages of the source.

What was measured:
Type in all cases: cell-based
EGFR L858R-T790M = target: T1, EGFR L858R-T790M (Homo sapiens, UniProt P00533, L858R/T790M); assay: EGFR degradation, Total EGFR (L858R-specific) HTRF, NCI-H1975; conditions: NCI-H1975 cells, 6 hours, Total EGFR HTRF, read-out: H1975 EGFR DC50
T1 construct: NCI-H1975 (harboring EGFR heterozygous L858R-T790M mutations); host or cells: NCI-H1975
Method in brief: (§1)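 HTRF read-outs: pY1068 phospho-EGFR for IC50; total EGFR (pan-EGFR in A431, L858R-specific in mutant lines) for DC50. Compounds were titrated 11 points, half-log, from 10 μM in duplicate onto cells in 10% FBS RPMI, incubated 6 h at 37°C.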

EGFR L858R-T790M-C797S = target: T2, EGFR L858R-T790M-C797S (Homo sapiens, UniProt P00533, C797S/L858R/T790M); assay: EGFR degradation, Total EGFR (L858R-specific) HTRF, NCI-H1975+CS; conditions: 6 hours, Total EGFR HTRF
T2 construct: generated using CRISPR technology to introduce the additional C797S mutation by Horizon Discovery; host or cells: NCI-H1975+CS (CRISPR knock-in of C797S)
Method in brief: as §1

EGFR L858R = EGFR L858R (Homo sapiens, UniProt P00533, L858R); assay: EGFR degradation, Total EGFR (L858R-specific) HTRF, NCI-H3255; parameters: NCI-H3255 (harboring EGFR heterozygous L858R mutation); host or cells: NCI-H3255; conditions: NCI-H3255 cells, 6 hours, Total EGFR HTRF, read-out: H3255 EGFR DC50
Method in brief: as §1

[1] = Table 9A, NCI-H1975+CS cells, read-out: H1975+ CS EGFR DC50
[2] = Table 9B, NCI-H1975 C797S clone, read-out: H1975 C797S clone EGFR DC50

EGFR L858R, sequence (P00533 25-1210 L858R): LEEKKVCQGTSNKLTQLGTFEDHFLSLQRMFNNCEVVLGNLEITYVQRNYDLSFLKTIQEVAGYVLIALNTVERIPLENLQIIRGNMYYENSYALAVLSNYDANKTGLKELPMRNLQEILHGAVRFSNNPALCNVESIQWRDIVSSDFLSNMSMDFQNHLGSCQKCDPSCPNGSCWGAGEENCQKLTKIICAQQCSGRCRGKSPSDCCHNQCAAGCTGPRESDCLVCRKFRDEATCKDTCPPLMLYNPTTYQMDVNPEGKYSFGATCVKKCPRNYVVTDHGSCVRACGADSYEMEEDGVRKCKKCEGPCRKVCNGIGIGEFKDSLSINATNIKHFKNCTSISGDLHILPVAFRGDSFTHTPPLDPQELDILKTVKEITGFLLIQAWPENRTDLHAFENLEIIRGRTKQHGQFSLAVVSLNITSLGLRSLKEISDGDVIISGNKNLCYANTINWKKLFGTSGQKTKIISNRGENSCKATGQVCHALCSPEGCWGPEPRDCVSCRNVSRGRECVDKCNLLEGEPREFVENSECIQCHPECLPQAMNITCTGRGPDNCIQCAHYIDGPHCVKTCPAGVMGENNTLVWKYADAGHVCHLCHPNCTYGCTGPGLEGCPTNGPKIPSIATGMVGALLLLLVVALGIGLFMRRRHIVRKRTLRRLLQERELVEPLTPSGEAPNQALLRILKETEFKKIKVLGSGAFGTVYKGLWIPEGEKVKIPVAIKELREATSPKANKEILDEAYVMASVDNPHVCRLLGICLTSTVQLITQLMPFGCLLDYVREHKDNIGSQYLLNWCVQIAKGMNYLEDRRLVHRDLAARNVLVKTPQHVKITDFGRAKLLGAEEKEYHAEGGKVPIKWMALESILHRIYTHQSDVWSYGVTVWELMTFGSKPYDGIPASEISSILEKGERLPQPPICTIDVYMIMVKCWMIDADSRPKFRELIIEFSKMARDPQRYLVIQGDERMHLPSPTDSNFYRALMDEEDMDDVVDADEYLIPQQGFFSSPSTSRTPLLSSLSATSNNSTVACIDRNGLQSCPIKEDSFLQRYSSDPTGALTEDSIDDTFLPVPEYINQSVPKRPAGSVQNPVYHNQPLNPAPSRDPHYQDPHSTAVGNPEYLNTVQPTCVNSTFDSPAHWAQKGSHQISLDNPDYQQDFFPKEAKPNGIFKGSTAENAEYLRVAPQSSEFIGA
T1 sequence (P00533 25-1210 T790M/L858R): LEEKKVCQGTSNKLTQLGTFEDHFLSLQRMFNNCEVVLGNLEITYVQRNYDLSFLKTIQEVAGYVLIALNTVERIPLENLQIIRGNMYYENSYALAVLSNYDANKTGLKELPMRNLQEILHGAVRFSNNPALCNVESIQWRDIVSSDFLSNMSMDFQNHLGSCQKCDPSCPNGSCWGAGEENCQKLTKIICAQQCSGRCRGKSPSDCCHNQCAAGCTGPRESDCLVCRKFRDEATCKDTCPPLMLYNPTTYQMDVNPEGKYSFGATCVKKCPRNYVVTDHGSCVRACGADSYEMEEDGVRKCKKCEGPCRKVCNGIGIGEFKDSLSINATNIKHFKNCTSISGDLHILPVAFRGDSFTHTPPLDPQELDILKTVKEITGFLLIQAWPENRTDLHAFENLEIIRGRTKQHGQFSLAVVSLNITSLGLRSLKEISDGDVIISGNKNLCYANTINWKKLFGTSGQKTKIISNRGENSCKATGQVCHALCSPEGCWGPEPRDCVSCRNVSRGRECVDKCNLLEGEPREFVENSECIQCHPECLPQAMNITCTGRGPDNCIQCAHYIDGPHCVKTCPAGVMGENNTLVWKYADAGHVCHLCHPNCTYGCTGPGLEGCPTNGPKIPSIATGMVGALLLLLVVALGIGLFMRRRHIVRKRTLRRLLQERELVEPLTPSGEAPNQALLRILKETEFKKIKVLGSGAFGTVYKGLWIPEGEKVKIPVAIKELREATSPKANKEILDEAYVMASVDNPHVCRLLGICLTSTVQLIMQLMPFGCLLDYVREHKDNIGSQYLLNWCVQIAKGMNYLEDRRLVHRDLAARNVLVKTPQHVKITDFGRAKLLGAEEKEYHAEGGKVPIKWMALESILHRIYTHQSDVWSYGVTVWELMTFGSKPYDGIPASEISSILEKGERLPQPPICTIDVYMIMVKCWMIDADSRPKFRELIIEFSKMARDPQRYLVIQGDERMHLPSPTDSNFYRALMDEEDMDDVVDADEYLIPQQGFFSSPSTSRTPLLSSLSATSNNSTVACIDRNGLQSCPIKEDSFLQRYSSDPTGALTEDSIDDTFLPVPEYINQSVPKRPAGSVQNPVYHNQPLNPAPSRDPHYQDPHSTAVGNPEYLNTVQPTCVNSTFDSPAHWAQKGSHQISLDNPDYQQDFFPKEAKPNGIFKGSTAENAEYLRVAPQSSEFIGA
T2 sequence (P00533 25-1210 T790M/C797S/L858R): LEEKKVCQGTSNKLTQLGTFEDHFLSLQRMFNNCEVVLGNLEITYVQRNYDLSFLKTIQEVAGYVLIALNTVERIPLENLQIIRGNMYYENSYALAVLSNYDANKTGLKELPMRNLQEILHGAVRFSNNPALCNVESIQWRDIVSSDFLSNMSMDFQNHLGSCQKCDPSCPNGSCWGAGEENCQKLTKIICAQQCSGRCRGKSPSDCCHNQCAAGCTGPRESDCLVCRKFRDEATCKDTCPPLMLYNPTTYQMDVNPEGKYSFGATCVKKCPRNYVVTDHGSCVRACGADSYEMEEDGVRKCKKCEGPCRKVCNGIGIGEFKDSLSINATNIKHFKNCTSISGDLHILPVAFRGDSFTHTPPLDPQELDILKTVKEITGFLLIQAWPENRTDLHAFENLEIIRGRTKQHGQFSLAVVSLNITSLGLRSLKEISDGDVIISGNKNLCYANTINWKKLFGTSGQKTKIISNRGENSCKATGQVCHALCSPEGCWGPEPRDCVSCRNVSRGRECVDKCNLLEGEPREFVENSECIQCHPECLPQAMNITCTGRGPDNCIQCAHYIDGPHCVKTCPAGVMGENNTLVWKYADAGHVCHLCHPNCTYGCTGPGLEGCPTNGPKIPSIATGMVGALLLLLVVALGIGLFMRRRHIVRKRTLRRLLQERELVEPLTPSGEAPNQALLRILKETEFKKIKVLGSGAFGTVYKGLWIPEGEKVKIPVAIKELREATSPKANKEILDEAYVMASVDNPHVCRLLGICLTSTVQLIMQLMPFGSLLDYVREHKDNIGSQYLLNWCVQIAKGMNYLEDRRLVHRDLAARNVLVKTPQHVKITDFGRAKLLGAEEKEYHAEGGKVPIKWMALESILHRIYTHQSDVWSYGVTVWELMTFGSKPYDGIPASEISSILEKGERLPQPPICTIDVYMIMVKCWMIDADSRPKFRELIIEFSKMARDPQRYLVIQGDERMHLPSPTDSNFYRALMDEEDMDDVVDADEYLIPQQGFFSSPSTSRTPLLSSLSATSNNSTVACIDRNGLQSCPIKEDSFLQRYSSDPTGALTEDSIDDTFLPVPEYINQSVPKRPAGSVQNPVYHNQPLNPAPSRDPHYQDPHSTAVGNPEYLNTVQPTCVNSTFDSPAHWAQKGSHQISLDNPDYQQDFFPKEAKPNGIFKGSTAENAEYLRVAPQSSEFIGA

| SMILES | DC50 (EGFR L858R-T790M; Table 9A) | DC50 (EGFR L858R-T790M-C797S; [1]) | DC50 (EGFR L858R; Table 9A) | DC50 (EGFR L858R-T790M; Table 9B) | DC50 (EGFR L858R-T790M-C797S; [2]) | DC50 (EGFR L858R; Table 9B) |
| --- | --- | --- | --- | --- | --- | --- |
| N#Cc1cc(NC2CCC(=O)NC2=O)ccc1C1CCN(CC(=O)N2CCC(c3ccc(-c4cc(F)c5c(c4)C(=O)N(C(C(=O)Nc4nccs4)c4ncn6c4CCC6)C5)cc3)CC2)CC1 (stereo not drawn) [Compound 25, 2-(6-(4-(1-(2-(4-(2-cyano-4-((2,6-dioxopiperidin-3-yl)amino)phenyl)piperidin-1-yl)acetyl)piperidin-4-yl)phenyl)-4-fluoro-1-oxoisoindolin-2-yl)-2-(6,7-dihydro-5H-pyrrolo[1,2-c]imidazol-1-yl)-N-(thiazol-2-yl)acetamide] | < 50 nM | < 50 nM | < 50 nM | – | – | – |
| O=C1CC[C@H](Nc2ccc(C3CCN(CC(=O)N4CCC(c5ccc(-c6cc(F)c7c(c6)C(=O)N(C(C(=O)Nc6nccs6)c6ncn8c6CCC8)C7)cc5)CC4)CC3)c(F)c2)C(=O)N1 (stereo partly drawn) [Compound 24, 2-(6,7-dihydro-5H-pyrrolo[1,2-c]imidazol-1-yl)-2-(6-(4-(1-(2-(4-(4-(((S)-2,6-dioxopiperidin-3-yl)amino)-2-fluorophenyl)piperidin-1-yl)acetyl)piperidin-4-yl)phenyl)-4-fluoro-1-oxoisoindolin-2-yl)-N-(thiazol-2-yl)acetamide] | 50 to 150 nM | < 50 nM | < 50 nM | – | – | – |
| O=C1CC[C@H](Nc2ccc(C3CCN(CC(=O)N4CC5(C4)CN(c4ccc(-c6cc(F)c7c(c6)C(=O)N(C(C(=O)Nc6nccs6)c6ncn8c6CCC8)C7)cc4)C5)CC3)c(F)c2)C(=O)N1 (stereo partly drawn) [Compound 48, 2-(6,7-dihydro-5H-pyrrolo[1,2-c]imidazol-1-yl)-2-[6-[4-[2-[2-[4-[4-[[(3S)-2,6-dioxo-3-piperidyl]amino]-2-fluoro-phenyl]-1-piperidyl]acetyl]-2,6-diazaspiro[3.3]heptan-6-yl]phenyl]-4-fluoro-1-oxo-isoindolin-2-yl]-N-thiazol-2-yl-acetamide] | < 50 nM | < 50 nM | < 50 nM | – | – | – |
| O=C1CC[C@@H](Nc2ccc(N3CCC(O)(CC(=O)N4CC5(C4)CN(c4ccc(-c6cc(F)c7c(c6)C(=O)N(C(C(=O)Nc6nccs6)c6ncn8c6CCC8)C7)cc4)C5)CC3)c(F)c2)C(=O)N1 (stereo partly drawn) [Compound 98, 2-(6,7-dihydro-5H-pyrrolo[1,2-c]imidazol-1-yl)-2-[6-[4-[2-[2-[1-[4-[[(3R)-2,6-dioxo-3-piperidyl]-amino]-2-fluoro-phenyl]-4-hydroxy-4-piperidyl]acetyl]-2,6-diazaspiro[3.3]heptan-6-yl]phenyl]-4-fluoro-1-oxo-isoindolin-2-yl]-N-thiazol-2-yl-acetamide] | – | – | – | < 50 nM | < 50 nM | < 50 nM |
| O=C1CCC(Nc2ccc(C3CCN(CC(=O)N4CCC(NC(=O)c5ccc(C#Cc6cc(F)c7c(c6)C(=O)N(C(C(=O)Nc6nccs6)c6ncn8c6CCC8)C7)cn5)CC4)CC3)cc2)C(=O)N1 (stereo not drawn) [Compound 97, 5-((2-(1-(6,7-dihydro-5H-pyrrolo[1,2-c]imidazol-1-yl)-2-oxo-2-(thiazol-2-ylamino)ethyl)-7-fluoro-3-oxoisoindolin-5-yl)ethynyl)-N-(1-(2-(4-(4-((2,6-dioxopiperidin-3-yl)amino)phenyl)piperidin-1-yl)acetyl)piperidin-4-yl)picolinamide] | – | – | – | < 50 nM | < 50 nM | < 50 nM |
| O=C1CCC(Nc2ccc(C3CCN(CC(=O)N4CCN(Cc5ccc(-c6cc(F)c7c(c6)C(=O)N(C(C(=O)Nc6nccs6)c6ncn8c6CCC8)C7)cc5)CC4)CC3)c(F)c2)C(=O)N1 (stereo not drawn) [Compound 57, 2-(6,7-dihydro-5H-pyrrolo[1,2-c]imidazol-1-yl)-2-[6-[4-[[4-[2-[4-[4-[(2,6-dioxo-3-piperidyl)amino]-2-fluoro-phenyl]-1-piperidyl]acetyl]piperazin-1-yl]methyl]phenyl]-4-fluoro-1-oxo-isoindolin-2-yl]-N-thiazol-2-yl-acetamide] | < 50 nM | < 50 nM | < 50 nM | – | – | – |
| O=C1CC[C@H](Nc2ccc(C3CCN(C(=O)CN4CCN(Cc5ccc(-c6cc(F)c7c(c6)C(=O)N(C(C(=O)Nc6nccs6)c6ncn8c6CCC8)C7)cc5)CC4)CC3)c(F)c2)C(=O)N1 (stereo partly drawn) [Compound 59, 2-(6,7-dihydro-5H-pyrrolo[1,2-c]imidazol-1-yl)-2-[6-[4-[[4-[2-[4-[4-[[(3S)-2,6-dioxo-3-piperidyl]amino]-2-fluoro-phenyl]-1-piperidyl]-2-oxo-ethyl]piperazin-1-yl]methyl]phenyl]-4-fluoro-1-oxo-isoindolin-2-yl]-N-thiazol-2-yl-acetamide] | < 50 nM | < 50 nM | < 50 nM | – | – | – |
| O=C1CC[C@H](Nc2ccc(C3CCN(CC(=O)N4CCN(Cc5ccc(-c6cc(F)c7c(c6)C(=O)N(C(C(=O)Nc6nccs6)c6ncn8c6CCC8)C7)cc5)CC4)CC3)c(F)c2)C(=O)N1 (stereo partly drawn) [Compound 58, 2-(6,7-dihydro-5H-pyrrolo[1,2-c]imidazol-1-yl)-2-[6-[4-[[4-[2-[4-[4-[[(3S)-2,6-dioxo-3-piperidyl]amino]-2-fluoro-phenyl]-1-piperidyl]acetyl]piperazin-1-yl]methyl]phenyl]-4-fluoro-1-oxo-isoindolin-2-yl]-N-thiazol-2-yl-acetamide] | < 50 nM | < 50 nM | < 50 nM | – | – | – |
| O=C1CCC(Nc2ccc(C3CCN(CC(=O)N4CCC(c5ccc(-c6cc(F)c7c(c6)C(=O)N(C(C(=O)Nc6nccs6)c6ncn8c6CCC8)C7)cc5)CC4)CC3)cc2)C(=O)N1 (stereo not drawn) [Compound 21, 2-(6,7-dihydro-5H-pyrrolo[1,2-c]imidazol-1-yl)-2-(6-(4-(1-(2-(4-(4-((2,6-dioxopiperidin-3-yl)amino)phenyl)piperidin-1-yl)acetyl)piperidin-4-yl)phenyl)-4-fluoro-1-oxoisoindolin-2-yl)-N-(thiazol-2-yl)acetamide] | < 50 nM | < 50 nM | < 50 nM | – | – | – |
| O=C1CC[C@H](Nc2ccc(C3CCN(CC(=O)N4CCN(c5ccc(-c6cc(F)c7c(c6)C(=O)N(C(C(=O)Nc6nccs6)c6ncn8c6CCC8)C7)cc5)CC4)CC3)cc2)C(=O)N1 (stereo partly drawn) [Compound 56, 2-(6,7-dihydro-5H-pyrrolo[1,2-c]imidazol-1-yl)-2-[6-[4-[4-[2-[4-[4-[[(3S)-2,6-dioxo-3-piperidyl]amino]phenyl]-1-piperidyl]acetyl]piperazin-1-yl]phenyl]-4-fluoro-1-oxo-isoindolin-2-yl]-N-thiazol-2-yl-acetamide] | < 50 nM | < 50 nM | < 50 nM | – | – | – |
| N#Cc1cc(NC2CCC(=O)NC2=O)ccc1C1CCN(CC(=O)N2CCN(c3ccc(-c4cc(F)c5c(c4)C(=O)N(C(C(=O)Nc4nccs4)c4ncn6c4CCC6)C5)cc3)CC2)CC1 (stereo not drawn) [Compound 14, 2-[6-[4-[4-[2-[4-[2-cyano-4-[(2,6-dioxo-3-piperidyl)amino]phenyl]-1-piperidyl]acetyl]piperazin-1-yl]phenyl]-4-fluoro-1-oxo-isoindolin-2-yl]-2-(6,7-dihydro-5H-pyrrolo[1,2-c]imidazol-1-yl)-N-thiazol-2-yl-acetamide] | < 50 nM | < 50 nM | < 50 nM | – | – | – |
| O=C1CCC(Nc2ccc(C3CCN(CC(=O)N4CCC(Oc5ccc(-c6cc(F)c7c(c6)C(=O)N(C(C(=O)Nc6nccs6)c6ncn8c6CCC8)C7)cc5)CC4)CC3)c(F)c2)C(=O)N1 (stereo not drawn) [Compound 35, 2-(6,7-dihydro-5H-pyrrolo[1,2-c]imidazol-1-yl)-2-(6-(4-((1-(2-(4-(4-((2,6-dioxopiperidin-3-yl)amino)-2-fluorophenyl)piperidin-1-yl)acetyl)piperidin-4-yl)oxy)phenyl)-4-fluoro-1-oxoisoindolin-2-yl)-N-(thiazol-2-yl)acetamide] | < 50 nM | < 50 nM | < 50 nM | – | – | – |
| O=C1CCC(Nc2ccc(C3CCN(CC(=O)N4CCN(c5ccc(-c6cc(F)c7c(c6)C(=O)N(C(C(=O)Nc6nccs6)c6ncn8c6C[C@@H](F)C8)C7)cc5)CC4)CC3)cc2)C(=O)N1 (mixture of isomers) [Compound 43, (2RS)-2-[6-[4-[4-[2-[4-[4-[[(3RS)-2,6-Dioxo-3-piperidyl]amino]phenyl]-1-piperidyl]acetyl]piperazin-1-yl]phenyl]-4-fluoro-1-oxo-isoindolin-2-yl]-2-[(6R)-6-fluoro-6,7-dihydro-5H-pyrrolo[1,2-c]imidazol-1-yl]-N-thiazol-2-yl-acetamide] | < 50 nM | < 50 nM | < 50 nM | – | – | – |
| O=C1CC[C@H](Nc2ccc(C3CCN(CC(=O)N4CCN(c5ccc(-c6cc(F)c7c(c6)C(=O)N(C(C(=O)Nc6nccs6)c6ncn8c6C[C@@H](F)C8)C7)cc5)CC4)CC3)c(F)c2)C(=O)N1 (stereo partly drawn) [Compound 44, 2-[6-[4-[4-[2-[4-[4-[[(3S)-2,6-dioxo-3-piperidyl]amino]-2-fluoro-phenyl]-1-piperidyl]acetyl]piperazin-1-yl]phenyl]-4-fluoro-1-oxo-isoindolin-2-yl]-2-[(6R)-6-fluoro-6,7-dihydro-5H-pyrrolo[1,2-c]imidazol-1-yl]-N-thiazol-2-yl-acetamide] | < 50 nM | < 50 nM | < 50 nM | – | – | – |
